Experimental data: patent publication US7879876B2, “Sulfonamide derivatives and use thereof for the modulation of metalloproteinases” (Merck Serono SA, priority 2005, dated 2011)

Tests used:
Assay type in all cases: biochemical
[1] = target: human ADAM17 (TACE) (Homo sapiens, UniProt P78536); experiment: TACE enzyme inhibition assay
Procedure: (§1) Compounds of the invention were tested to assess their activities as inhibitors of MMP-1, MMP-2, MMP-9, MMP-14, MMP-12 and TACE. MMP-9 Assay Protocol
Compounds of the invention can be tested for inhibitory activity against human ADAM17 in an assay using human Mca-(endo-1a-Dap(Dnp)-TNF-alpha(−5 to +6)amide as substrate (FEBS Letters, 2000, 275-279).
Stock solutions are prepared as followed: • Assay Buffer: 20 mM Hepes pH 7.5 (Fluka) containing 0.05% Brij 35 (Fluka) • Substrate: 6.1 mM human Mca-(endo-1a-Dap(Dnp)-TNF-alpha(−5 to +6)amide (Bachem) stock solution in 100% DMSO (stored at −20° C.); diluted to 5 μM in assay buffer. • Enzyme: Recombinant human ADAM17, appropriately diluted in assay buffer (1.5 μg/ml).
Test Compounds are prepared initially as 10 mM compound solution in 100% DMSO, diluted to 1 mM in 100% DMSO, then serially diluted 3-fold in 100% DMSO across a 96-well microtitre plate. Assay concentration range is typically between 100 μM to 0.01 nM. The assay is performed in a total volume of 100 μL per well in 96-well microtitre plates. Appropriate concentrations of test compounds dissolved in 10 μL of DMSO are added to the wells, followed by substrate solution (50 μL, 5 μM prepared by dilution of DMSO stock in assay buffer) and enzyme solution (40 μL). For each as say ten concentrations of test compound are examined in […]. Control wells lack either enzyme or test compound. The reactions are incubated at room temperature for 1.5 hours. The fluorescence at 405 nm is measured immediately with a fluorometer using 355 nm excitation, without stopping the reaction.
(§2) The effect of the test compound is determined from the dose response curve generated by the 10 duplicate concentrations of inhibitor. The IC50 (the concentration of compound required to give a 50% decrease in enzyme activity) is obtained by fitting data to the equation, Y=a+((b−a)/(1+(c/X)^d)). (Y=inhibition achieved for a particular dose; X=the dose in nM; a=minimum y or zero % inhibition; b=maximum y or 100% inhibition; c=is the IC50; d=is the slope). The result is rounded to one significant figure.

[2] = target: 92 kDa gelatinase (MMP-9) (Homo sapiens, UniProt P14780); experiment: MMP-9 enzyme inhibition assay (coumarin-labeled peptide substrate); conditions: for IC50: read-out: IC50 MMP9
Procedure: as §1
(§3) Compounds of the invention were tested for inhibitory activity against 92 kDa gelatinase (MMP-9) in an assay using a coumarin-labeled peptide substrate, (7-methoxycoumarin-4-yl)acetyl-Pro-Leu-Gly-Leu-(3-[2,4-dinitrophenyl]-L-2,3diaminopropionyl)-Ala-Arg-NH2 (McaPLGLDpaAR) (Knight et al, FEBS Lett. 1992; 263-266).
(§4) Stock solutions were made up as follows: Assay Butter: 100 mM Tris-HCl pH 7.6 containing 100 mM NaCl, 10 mM CaCl2, and 0.05% Brij 35.
(§5) Substrate: 0.4 mM McaPLGLDpaAR (from Bachem) (0.437 mg/ml) stock solution in 100% DMSO (stored at −20° C.). Dilute to 8 μM in assay butter.
(§6) Enzyme: Recombinant human 92 kDa gelatinase (MMP-9; APMA (4-aminophenyl mercuric acetate)-activated if necessary) appropriately diluted in assay butter.
(§7) Test Compounds were prepared initially as 10 mM compound solution in 100% DMSO, diluted to 1 mM in 100% DMSO, then serially diluted 3-fold in 100% DMSO across columns 1-10 of a 96-well microtitre plate Assay concentration range, 100 μM (column 1) to 5.1 nM (column 10).
(§8) The assay was performed in a total volume of 100 μL per well in 96-well microtitre plates. Activated enzyme (20 μL) was added to the wells followed by 20 μL of assay butter. Appropriate concentrations of test compounds dissolved in 10 μL of DMSO were then added followed by 50 μL of McaPLGLDpaAR (8 μM, prepared by dilution of DMSO stock in assay butter). For each as say ten concentrations of test compound were examined in duplicate. Control wells lack either enzyme or test compound. The reactions were incubated at 37° C. for 2 hours. The fluorescence at 405 nm was measured immediately with an SLT Fluostar fluorometer (SL T Labinstruments GmbH, Grödig, Austria) using 320 nm excitation, without stopping the reaction.
as §2, with “compound was” for “compound is”, “activity) was” for “activity) is”, “result was” for “result is”

[3] = target: T1, collagenase (MMP-1) (Homo sapiens, UniProt P03956); experiment: MMP-1 enzyme inhibition assay (coumarin-labelled peptide substrate); conditions: for IC50: read-out: IC50 MMP1
T1 sequence (P03956 100-469): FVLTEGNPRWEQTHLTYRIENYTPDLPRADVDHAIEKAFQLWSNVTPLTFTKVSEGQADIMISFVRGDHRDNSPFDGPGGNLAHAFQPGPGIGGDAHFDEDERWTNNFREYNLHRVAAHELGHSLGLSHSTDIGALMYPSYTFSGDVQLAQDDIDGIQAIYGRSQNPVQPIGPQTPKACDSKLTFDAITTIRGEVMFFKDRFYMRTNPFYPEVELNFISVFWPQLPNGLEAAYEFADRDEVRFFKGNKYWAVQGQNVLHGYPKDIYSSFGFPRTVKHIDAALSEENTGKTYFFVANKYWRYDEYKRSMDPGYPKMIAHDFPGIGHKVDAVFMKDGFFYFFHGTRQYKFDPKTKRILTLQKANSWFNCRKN
Procedure: as §1, §3, §4, §5, §6, §7, §8
as §2, with “compound was” for “compound is”, “activity) was” for “activity) is”, “result was” for “result is”
Compounds of the invention were tested for inhibitory activity against collagenase (MMP-1) in an assay using a coumarin-labelled peptide substrate, (7-methoxycoumarin-4-yl)acetyl-Pro-Leu-Gly-Leu-(3-[2,4-dinitrophenyl]-L-2,3diaminopropionyl)-Ala-Arg-NH2 (Mca PLGLDpaAR) (Knight et al, 1992, above). The protocol for this assay was as described for the MMP-9 assay above.

[4] = read-out: percentage inhibition MMP1

92 kDa gelatinase (MMP-9), sequence (P14780 107-707 limits assumed): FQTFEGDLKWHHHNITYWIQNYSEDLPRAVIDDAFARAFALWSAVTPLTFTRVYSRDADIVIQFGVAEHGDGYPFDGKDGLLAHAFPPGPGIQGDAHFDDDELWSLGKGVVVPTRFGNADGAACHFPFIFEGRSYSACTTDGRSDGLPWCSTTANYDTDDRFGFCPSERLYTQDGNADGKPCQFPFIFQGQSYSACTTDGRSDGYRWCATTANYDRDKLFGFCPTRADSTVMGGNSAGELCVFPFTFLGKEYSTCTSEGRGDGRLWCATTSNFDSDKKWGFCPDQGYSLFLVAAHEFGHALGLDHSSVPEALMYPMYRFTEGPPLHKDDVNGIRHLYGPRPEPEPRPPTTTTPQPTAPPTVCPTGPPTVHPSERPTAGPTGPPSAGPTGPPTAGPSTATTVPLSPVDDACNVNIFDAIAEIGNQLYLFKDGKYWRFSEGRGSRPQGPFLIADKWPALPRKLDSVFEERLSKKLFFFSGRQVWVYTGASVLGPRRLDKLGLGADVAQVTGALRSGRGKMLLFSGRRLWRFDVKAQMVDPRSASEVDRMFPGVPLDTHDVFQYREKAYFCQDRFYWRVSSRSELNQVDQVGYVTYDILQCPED
human ADAM17 (TACE), sequence (P78536 215-824): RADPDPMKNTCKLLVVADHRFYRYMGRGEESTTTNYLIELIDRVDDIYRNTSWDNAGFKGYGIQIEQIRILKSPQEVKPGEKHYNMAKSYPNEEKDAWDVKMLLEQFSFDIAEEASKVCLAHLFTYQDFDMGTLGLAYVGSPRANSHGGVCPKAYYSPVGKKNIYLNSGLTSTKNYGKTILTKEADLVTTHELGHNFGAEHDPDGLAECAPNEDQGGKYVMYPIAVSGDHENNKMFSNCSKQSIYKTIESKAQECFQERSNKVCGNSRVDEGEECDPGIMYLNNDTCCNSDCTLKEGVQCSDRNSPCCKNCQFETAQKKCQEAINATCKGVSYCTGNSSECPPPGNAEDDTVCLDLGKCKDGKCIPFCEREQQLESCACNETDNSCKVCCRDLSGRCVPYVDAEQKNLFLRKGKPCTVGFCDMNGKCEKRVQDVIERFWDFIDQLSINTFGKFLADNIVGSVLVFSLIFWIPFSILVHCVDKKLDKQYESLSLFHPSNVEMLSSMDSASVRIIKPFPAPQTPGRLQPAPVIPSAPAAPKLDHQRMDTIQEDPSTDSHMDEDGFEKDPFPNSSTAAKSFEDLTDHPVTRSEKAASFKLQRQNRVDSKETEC

| Compound | IC50 [1] [µM] | inhibition at 5 µM ([2]; @ 5 μM, read-out: percentage inhibition MMP9) [%] | inhibition at 5 µM [3, 4] [%] | IC50 [2] [µM] | IC50 [3] [µM] | inhibition at 0.1 µM ([3]; @ 0.1 μM, read-out: percentage inhibition MMP1) [%] |
| --- | --- | --- | --- | --- | --- | --- |
| CC(C)(C)OC(=O)N1CCC[C@@H]1[C@@H](CS(=O)(=O)N1CCc2cc(Cl)c(Cl)cc2C1)N(O)C=O (racemic) [Example 44, tert-butyl (2RS)-2-{(1SR)-2-[(6,7-dichloro-3,4-dihydro-isoquinolin-2(1H)-yl)sulfonyl]-1-[formyl(hydroxy)amino]ethyl}pyrrolidine-1-carboxylate] | 0.371 | 21 | 9 | – | – | – |
| O=CN(O)C(CCc1ccccc1)CS(=O)(=O)N1CCc2ccccc2C1 (stereo not shown) [Example 1, N-{1-[(3,4-dihydroisoquinolin-2(1H)-ylsulfonyl)methyl]-3-phenylpropyl}-N-hydroxyformamide] | 0.067 | – | – | > 5 | > 5 | – |
| CC1(C)OC[C@H](C(CS(=O)(=O)N2CCc3ccccc3C2)N(O)C=O)O1 (stereo partly drawn) [Example 2, N-{2-(3,4-dihydroisoquinolin-2(1H)-ylsulfonyl)-1-[(4S)-2,2-dimethyl-1,3-dioxolan-4-yl]ethyl}-N-hydroxyformamide] | 0.033 | – | – | > 5 | > 5 | – |
| CCCCCC(CS(=O)(=O)N1CCc2ccccc2C1)N(O)C=O (stereo not shown) [Example 3, N-{1-[(3,4-dihydroisoquinolin-2(1H)-ylsulfonyl)methyl]hexyl}-N-hydroxyformamide] | 0.028 | – | 31 | > 5 | – | – |
| O=CN(O)C(CS(=O)(=O)N1CCc2ccccc2C1)C1CC1 (stereo not shown) [Example 4, N-[1-cyclopropyl-2-(3,4-dihydroisoquinolin-2(1H)-ylsulfonyl)ethyl]-N-hydroxyformamide] | 0.114 | – | 19 | > 5 | – | – |
| O=CN(O)C(CCc1ccccc1)CS(=O)(=O)N1Cc2ccccc2C1 (stereo not shown) [Example 6, N-{1-[(1,3-dihydro-2H-isoindol-2-ylsulfonyl)methyl]-3-phenylpropyl}-N-hydroxyformamide] | 0.28 | – | – | 0.877 | > 5 | – |
| O=CN(O)C(CS(=O)(=O)N1CCc2ccccc2C1)c1cncnc1 (stereo not shown) [Example 9, N-[2-(3,4-dihydroisoquinolin-2(1H)-ylsulfonyl)-1-pyrimidin-5-ylethyl]-N-hydroxyformamide] | 0.128 | – | 29 | > 5 | – | – |
| O=CN(O)C(CS(=O)(=O)N1CCc2ccccc2C1)c1cccnc1 (stereo not shown) [Example 10, N-[2-(3,4-dihydroisoquinolin-2(1H)-ylsulfonyl)-1-pyridin-3-ylethyl]-N-hydroxyformamide] | 0.067 | – | 8 | > 5 | – | – |
| COc1cc2c(cc1OC)CN(S(=O)(=O)CC(CCc1ccccc1)N(O)C=O)CC2 (stereo not shown) [Example 12, N-(1-{[(6,7-dimethoxy-3,4-dihydroisoquinolin-2(1H)-yl)sulfonyl]methyl}-3-phenylpropyl)-N-hydroxyformamide] | 1.22 | – | 0 | > 5 | – | – |
| COc1ccc(C(CS(=O)(=O)N2CCc3ccccc3C2)N(O)C=O)cn1 (stereo not shown) [Example 13, N-[2-(3,4-dihydroisoquinolin-2(1H)-ylsulfonyl)-1-(6-methoxypyridin-3-yl)ethyl]-N-hydroxyformamide] | 0.04 | – | 16 | > 5 | – | – |
| COc1cc2c(cc1OC)CN(S(=O)(=O)CC([C@H]1COC(C)(C)O1)N(O)C=O)CC2 (stereo partly drawn) [Example 14, N-{2-[(6,7-dimethoxy-3,4-dihydroisoquinolin-2(1H)-yl)sulfonyl]-1-[(4S)-2,2-dimethyl-1,3-dioxolan-4-yl]ethyl}-N-hydroxyformamide] | 0.62 | – | 0 | > 5 | – | – |
| CC1(C)OC[C@H](C(CS(=O)(=O)N2Cc3ccccc3C2)N(O)C=O)O1 (stereo partly drawn) [Example 16, N-{2-(1,3-dihydro-2H-isoindol-2-ylsulfonyl)-1-[(4S)-2,2-dimethyl-1,3-dioxolan-4-yl]ethyl}-N-hydroxyformamide] | 0.311 | – | 74 | > 5 | – | 5 |
| CC(C)c1ccc2c(c1)CCN(S(=O)(=O)CC([C@H]1COC(C)(C)O1)N(O)C=O)C2 (stereo partly drawn) [Example 18, N-{1-[(4S)-2,2-dimethyl-1,3-dioxolan-4-yl]-2-[(6-isopropyl-3,4-dihydroisoquinolin-2(1H)-yl)sulfonyl]ethyl}-N-hydroxyformamide] | 0.64 | – | 9 | > 5 | – | – |
| CC1(C)OC[C@H](C(CS(=O)(=O)N2CCc3ccc(Cl)cc3C2)N(O)C=O)O1 (stereo partly drawn) [Example 19, N-{2-[(7-chloro-3,4-dihydroisoquinolin-2(1H)-yl)sulfonyl]-1-[(4S)-2,2-dimethyl-1,3-dioxolan-4-yl]ethyl}-N-hydroxyformamide] | 0.023 | – | 45 | > 5 | – | – |
| O=CN(O)C(CS(=O)(=O)N1CCc2ccc(Cl)cc2C1)C1CCCC1 (stereo not shown) [Example 21, N-{2-[(7-chloro-3,4-dihydroisoquinolin-2(1H)-yl)sulfonyl]-1-cyclopentylethyl}-N-hydroxyformamide] | 0.056 | – | 20 | > 5 | – | – |
| O=CN(O)[C@@H](CS(=O)(=O)N1CCc2ccc(Cl)cc2C1)[C@H]1CCCO1 [Example 22, N-{(1R)-2-[(7-chloro-3,4-dihydroisoquinolin-2(1H)-yl)sulfonyl]-1-[(2R)-tetrahydrofuran-2-yl]ethyl}-N-hydroxyformamide] | 0.389 | – | 0 | > 5 | – | – |
| O=CN(O)[C@H](CS(=O)(=O)N1CCc2ccc(Cl)cc2C1)[C@H]1CCCO1 [Example 23, N-{(1S)-2-[(7-chloro-3,4-dihydroisoquinolin-2(1H)-yl)sulfonyl]-1-[(2R)-tetrahydrofuran-2-yl]ethyl}-N-hydroxyformamide] | 0.013 | – | 52 | > 5 | – | – |
